Experimental data reported in article PMC9973354 (mBio, 2022).
Several values for one entry are separate records, joined by “and”; a condition that tells them apart may be missing. Equal values may be shown once. Starred links: 1 amine or outer side, 2 acyl side, 3 side chain; linkers in the order of their positions; H or OH if unused. Positions of bridges follow the written chain, without caps; N, C: chain ends. Non-standard residues stand in square brackets, D forms with d. Residues, ends and D or L forms follow the SMILES beside them. ξ: configuration not given here. X1 = O=C([C@@H]1CCN=C2C(N[*:1])=Cc3cc(O)c(O)cc3N21)[*:2]; ξOrn(N(OH)CHO) = NC(CCCN(O)C=O)C(=O)O; Suc = O=C(CCC(=O)[*:2])[*:1]; ξK = NCCCCC(N)C(=O)O; ξS = NC(CO)C(=O)O

Assays:
[1] = target: T1, FpvB R191A R648C (Pseudomonas aeruginosa, UniProt A0A0H2ZFZ5, R191A/R648C); assay: Whole-cell fluorescence quenching, FpvB R191A R648C; format: binding; conditions: FpvB R191A R648C
T1 sequence (A0A0H2ZFZ5 23-802 R191A/R648C): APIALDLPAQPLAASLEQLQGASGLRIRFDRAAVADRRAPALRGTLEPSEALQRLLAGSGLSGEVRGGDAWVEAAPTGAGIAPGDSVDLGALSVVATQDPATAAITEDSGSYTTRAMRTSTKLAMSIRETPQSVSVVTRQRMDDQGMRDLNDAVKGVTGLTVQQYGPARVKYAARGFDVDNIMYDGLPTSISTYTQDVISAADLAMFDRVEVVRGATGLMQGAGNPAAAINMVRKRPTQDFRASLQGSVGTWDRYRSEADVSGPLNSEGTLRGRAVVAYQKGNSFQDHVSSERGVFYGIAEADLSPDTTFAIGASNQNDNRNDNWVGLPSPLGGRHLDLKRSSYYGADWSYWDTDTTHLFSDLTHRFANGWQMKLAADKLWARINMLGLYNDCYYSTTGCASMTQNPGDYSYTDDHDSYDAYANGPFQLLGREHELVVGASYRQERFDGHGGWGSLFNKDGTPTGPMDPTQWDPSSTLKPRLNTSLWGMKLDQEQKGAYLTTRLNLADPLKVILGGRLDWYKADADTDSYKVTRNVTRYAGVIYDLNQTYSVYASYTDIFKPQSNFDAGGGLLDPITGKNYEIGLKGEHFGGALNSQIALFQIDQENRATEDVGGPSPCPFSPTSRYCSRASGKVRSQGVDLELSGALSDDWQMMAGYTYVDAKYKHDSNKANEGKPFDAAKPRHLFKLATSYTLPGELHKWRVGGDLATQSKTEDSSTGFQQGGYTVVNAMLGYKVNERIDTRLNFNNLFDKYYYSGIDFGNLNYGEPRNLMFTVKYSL
Protocol: (§1) Quenching assays with the two xenosiderophores were repeated for the quadruple TBDT mutant expressing WT FpvB, FpvB R191A R648C, or W347V R648C.
(§2) Cells were cultured overnight in LB with carbenicillin (200 μg/mL) at 37°C with shaking at 200 rpm. Cells were subcultured (1:200 dilution) in 10:90 plus 2% arabinose for 4 h without carbenicillin at 37°C with shaking at 200 rpm. Cells were harvested by centrifugation for 5 min and 6,000 × g and resuspended in sterile 1× phosphate-buffered saline (PBS) (pH 7.4); 1× PBS was made from a 10× stock (80 g NaCl, 2 g KCl, 26.8 g Na2 HPO4-7H2O, 2.4 g KH2PO4 in 1 L of deionized H2O) with 10 μM Alexa Fluor 594 C5 maleimide for microscopy or fluorescein-5-maleimide for fluorescence quenching and recovery assays and incubated in the dark at room temperature for 30 min on a shaking incubator at 37°C (200 rpm). Excess dye was quenched with 1 mM dithiothreitol (DTT) (Sigma) to stop the reaction. Cells were washed 3× with PBS. For fluorescence recovery assays, cells were incubated with 1× PBS plus 0.4% glucose at 37°C with shaking at 200 rpm. Glucose was prepared as a 20% stock (wt/vol) in 1× PBS and filter sterilized. Cells were spun down and washed 3× with 1× PBS and resuspended in 1× PBS for quenching assays and 1× PBS plus 0.4% glucose for fluorescence recovery assays.
(§3) For fluorescence quenching and recovery assays, cells were diluted to an OD600 of 0.1 for both types of assays, and 148 μL was added into wells of a 96-well black plate (Corning). Fluorescence was recorded for 5 min at 1-min intervals at 37°C (BioTek Neo; excitation, 494 nm; emission, 520 nm). After 5 min, 2 μL of each serial dilution for ferrioxamine-Fe^3+, ferrichrome-Fe^3+, and pyoverdine-Fe^3+ or DMSO for vehicle controls was added to each well. Fluorescence was recorded immediately for quenching assays and for 1 h at 1-min intervals for fluorescence recovery assays. Background fluorescence was subtracted from all fluorescence readings and 1-F/F0 was used to calculate the degree of quenching, where F0 is the initial fluorescence. Kd was calculated using GraphPad Prism using a one-site specific binding model or a two-site model. For fluorescence recovery assays, background was subtracted from all fluorescence readings and F/F0 expressed as a percent of control was plotted versus time.

[2] = target: T2, FpvB W347V R648C (Pseudomonas aeruginosa, UniProt A0A0H2ZFZ5, R648C/W347V); assay: Whole-cell fluorescence quenching, FpvB W347V R648C; format: binding; conditions: FpvB W347V R648C
T2 sequence (A0A0H2ZFZ5 23-802 W347V/R648C): T1 sequence (A0A0H2ZFZ5 23-802 R191A/R648C)
Protocol: as §1, §2, §3

[3] = system: PA14 ΔfpvA ΔfpvB pHERD20T-fpvA; assay: Checkerboard assay TS and siderophores, FpvA expressed; format: cell-based, Pseudomonas aeruginosa; conditions: 10:90 + 2% arabinose
Description: We investigated this hypothesis by treating the ΔfpvA ΔfpvB mutant complemented with fpvA or fpvB with TS and pyoverdine-Fe^3+. If pyoverdine competes with TS for the same binding site in the transporter, a reduction in TS susceptibility would be expected, as competition would decrease entry of the antibiotic into the cell. TS susceptibility decreased >8-fold with increasing concentrations of pyoverdine-Fe^3+ when FpvA was expressed (see Fig. S2A in the supplemental material).
Supplementary file : FIG S2 Checkerboard assays of the PA14 ΔfpvA ΔfpvB strain complemented with fpvA and fpvB in trans with TS and siderophores. […] Checkerboards of the PA14 ΔfpvA ΔfpvB pHERD20T-fpvB strain with TS and enterobactin (G), ferrioxamine E (H), and arthrobactin (I). Results are averaged from three independent biological replicates. Cells in the assay were grown in 10:90 + 2% arabinose. Download FIG S2, EPS file, 2.2 MB.
Checkerboards (8 rows by 8 columns) were conducted as previously described in a 96-well plate (Nunc) ([13], [14]). TS at 75× the final concentration dissolved in DMSO was added in columns from bottom to top in increasing concentrations. Siderophores at 75× the final concentration dissolved in DSMO were added from in rows from left to right in increasing concentrations. Four columns were used for vehicle controls (DMSO) and sterile controls. […] Plates were sealed to prevent evaporation and incubated at 37°C overnight in a shaking incubator (200 rpm). The next day, the OD600 was determined with a plate reader (Thermo Scientific) and normalized to percent of growth of the vehicle control (DMSO) after subtracting the OD600 from blank media.

[4] = one-site model, read-out: Kd (converted)

Compound	affinity (Kd not reached, no saturation at highest concentration) [1]	affinity (Kd not reached, no saturation at highest concentration) [2]	effect of siderophore on TS susceptibility [3]	Kd [1, 4]	Kd [2, 4] [µM]
NCCCCC(NC(=O)C(CO)NC(=O)[C@@H]1CCN=C2C(NC(=O)CCC(=O)O)=Cc3cc(O)c(O)cc3N21)C(=O)NCC(=O)NC(CCCN(O)C=O)C(=O)NC1CCCCNC(=O)C(CO)NC(=O)C(CCCN(O)C=O)NC1=O (some centres unmarked) [pyoverdine] (Suc-[X1][ξS][ξK]G[ξOrn(N(OH)CHO)][ξK][ξOrn(N(OH)CHO)][ξS]; lactam 6-C)	reduced affinity	reduced affinity			
CC(=O)N(O)CCCCCNC(=O)CCC(=O)N(O)CCCCCNC(=O)CCC(=O)N(O)CCCCCN [ferrioxamine B]			None of those siderophores reduced TS susceptibility	535 µM and 480 µM	874
